We go through 45 compounds from US20210170033A1, “NOVEL CONJUGATES OF A PHARMACEUTICAL AGENT AND A MOIETY CAPABLE OF BINDING TO A GLUCOSE SENSING PROTEIN” (SANOFI, priority 2017, published 2021).

This assay deals with A2780 cells. Kind of assay: Deoxy-glucose uptake assay in A2780 cells (14C 2-deoxy-D-glucose transport). In kind it is cell-based. The following applies: Homo sapiens, 20 min; inhibition of 14C 2-deoxy-D-glucose transport into A2780 cells; 20 min compound incubation; read-out: IC50. As to the method:
1. Deoxy-Glucose Uptake Assay in A2780 Cells:
For measurement of ^14C 2-deoxy-D-glucose transport into A2780 cells, cells were seeded in 96-well plates (Cytostar-T Plates Perkin Elmer, 70,000 cells/180 μl/well) in medium complete (RPMI1640+Glutamax (Life technologies #61870)) and grown for 48 hours. After 48 h, cells were washed once with 180 μL KRB (Krebs Ringer Bicarbonate) buffer, and stimulated in a dose dependent manner by adding 10 μL of test compound dilution 0-1.1 mM (11 times higher concentration than final) or 10 μL of 1.1 mM Cytochalasin B solution as negative control, to 90 μL KRB buffer and incubated for 20 minutes. After compound stimulation, the transport of ^14C 2-deoxy-D-glucose was started by adding of 50 μL 2-^14C[U] 2-deoxy-D-glucose solution (109.1 μM 2-deoxy-D-glucose cold and 33 μM 2-^14C[U] 2-deoxy-D-glucose 0.1 μCi/well) for 20 minutes. Transport was stopped by adding 50 μL/well 96 μM Cytochalasin B solution. Plates were measured in a 96-well Wallac Microbeta device. The cpm (counts per minute) values were used to determine the % inhibition values for the test compounds within each experiment. In a first step, the mean background value generated by Cytochalasin B (a potent glucose transporter inhibitor) treated cells, was subtracted from the mean values of the treated cells. All mean values were obtained from triplicates. For %-Inhibition results, the mean value of the untreated cells (just KRB) was set as 100%. All other mean values were calculated to this relation. IC50 were obtained by regression analysis of dose response curve with 7 or 14 concentrations, respectively, for each compound.

On to `CCOC(=O)c1cccc(COc2c(Cl)cc(C(=O)N[C@H]3[C@@H](OC)O[C@H](CO)[C@@H](O)[C@@H]3O)c(C)c2Cl)n1` [Example 270], for which the IC50 (commonly the concentration at which inhibition is half-maximal) amounted to 27.8 µM.
Then `CCOC(=O)c1cccc(COc2c(Cl)cc(C(=O)O[C@H]3[C@@H](OC)O[C@H](CO)[C@@H](O)[C@@H]3O)c(C)c2Cl)n1` [Example 271], with 4.2 µM; and `C#CCCC(=O)Nc1cc(COc2c(Cl)cc(C(=O)N[C@H]3[C@@H](OC)O[C@H](CO)[C@@H](O)[C@@H]3O)c(C)c2Cl)cnc1OC` [Example 274], with 17.9 µM.
Then `C#CCCCn1c(COc2c(Cl)cc(C(=O)O[C@@H]3[C@@H](O)[C@@H](OC)O[C@H](CO)[C@H]3O)c(C)c2Cl)nc2ccccc21` [Example 275], with 0.1 µM.
As for `COc1cc(C(=O)O[C@H]2[C@@H](OC)O[C@H](CO)[C@@H](O)[C@@H]2O)cc(Cl)c1OCc1cccc(OCC(=O)OC(C)(C)C)c1` [Example 276], the IC50 came to 14.4 µM.
Then `CO[C@H]1O[C@H](CO)[C@@H](O)[C@H](O)[C@H]1OC(=O)c1cc(Cl)c(OCc2cccc(CNC(=O)[C@H](CC(C)C)NC(=O)OC(C)(C)C)c2)c(Cl)c1C` [Example 278], with 1.6 µM.
Then `CO[C@H]1O[C@H](CO)[C@@H](O)[C@H](O)[C@H]1OC(=O)c1cc(Cl)c(OCc2cccc(CNC(=O)[C@H](CC(C)C)N(C)C(=O)OC(C)(C)C)c2)c(Cl)c1C` [Example 279], with 3.4 µM; and `C#CCCCn1c(COc2c(Cl)cc(C(=O)N[C@H]3[C@@H](OC)O[C@H](CO)[C@@H](O)[C@@H]3O)c(C)c2Cl)cc2ccccc21` [Example 280], with 5.9 µM; and `CCOC(=O)c1nnsc1COc1c(Cl)cc(C(=O)O[C@H]2[C@@H](OC)O[C@H](CO)[C@@H](O)[C@@H]2O)c(C)c1Cl` [Example 282], with 0.3 µM.
For the compound `CCOC(=O)c1nnsc1COc1c(Cl)cc(C(=O)N[C@H]2[C@@H](OC)O[C@H](CO)[C@@H](O)[C@@H]2O)c(C)c1Cl` [Example 283], the IC50 worked out at 6.7 µM.
Then `COC(=O)c1ccc(COc2c(Cl)cc(C(=O)N[C@H]3[C@@H](OC)O[C@H](CO)[C@@H](O)[C@@H]3O)c(C)c2Cl)nc1` [Example 284], with 14.2 µM.
`CO[C@H]1O[C@H](CO)[C@@H](O)[C@H](O)[C@H]1OC(=O)c1cc(Cl)c(OCc2cccc(CNC(=O)[C@@H](N)CC(C)C)c2)c(Cl)c1C` [Example 285]: the IC50 worked out at 23.2 µM.
With `CN[C@@H](CC(C)C)C(=O)NCc1cccc(COc2c(Cl)cc(C(=O)O[C@H]3[C@@H](OC)O[C@H](CO)[C@@H](O)[C@@H]3O)c(C)c2Cl)c1` [Example 286] the figure was 4.8 µM.
With `CO[C@H]1O[C@H](CO)[C@@H](O)[C@H](O)[C@H]1NC(=O)c1cc(Cl)c(OCc2ccc(C(=O)OC(C)(C)C)cc2)c(Cl)c1C` [Example 296], the IC50 was 7.6 µM.
Then `CO[C@H]1O[C@H](CO)[C@@H](O)[C@H](O)[C@H]1NC(=O)c1cc(Cl)c(OCc2ccccc2)cc1C` [Example 297], with 2.2 µM; and `COc1c(C(=O)O[C@H]2[C@@H](OC)O[C@H](CO)[C@@H](O)[C@@H]2O)ccc(OCc2ccccc2)c1Cl` [Example 298], with 27.2 µM.
Then `COC(=O)/C=C/c1ccc(COc2c(Cl)cc(C(=O)O[C@H]3[C@@H](OC)O[C@H](CO)[C@@H](O)[C@@H]3O)cc2OC)cc1` [Example 299], with 45.8 µM.
Then `CO[C@H]1O[C@H](CO)[C@@H](O)[C@H](O)[C@H]1OC(=O)c1cc(Cl)c(OCc2ccccc2)cc1C` [Example 300], with 6.9 µM.
As for `CO[C@H]1O[C@H](CO)[C@@H](O)[C@H](O)[C@H]1NC(=O)c1cc(Cl)c(OCc2nc3ccccc3n2CCCCCC(=O)OC(C)(C)C)c(Cl)c1C` [Example 301], the IC50 was 0.1 µM.
Then `COc1ncc(COc2c(Cl)cc(C(=O)N[C@H]3[C@@H](OC)O[C@H](CO)[C@@H](O)[C@@H]3O)c(C)c2Cl)cc1NCC(=O)OC(C)(C)C` [Example 303], with 0.2 µM; and `CO[C@H]1O[C@H](CO)[C@@H](O)[C@H](O)[C@H]1NC(=O)c1cc(Cl)c(OCc2cccc(OCC(=O)OC(C)(C)C)c2)c(Cl)c1C` [Example 307], with 24 µM.
Then `COC(=O)/C=C/c1ccc(COc2c(Cl)cc(C(=O)O[C@H]3[C@@H](OC)O[C@H](CO)[C@@H](O)[C@@H]3O)c(C)c2Cl)cc1` [Example 317], with 14.7 µM.
Then `COC(=O)CCCCCNC(=O)c1cccc(COc2c(Cl)cc(C(=O)N[C@H]3[C@@H](OC)O[C@H](CO)[C@@H](O)[C@@H]3O)c(C)c2Cl)c1` [Example 323], with 28 µM.
Regarding `COc1c(C(=O)N[C@H]2[C@H](OC)O[C@H](CO)[C@@H](O)[C@@H]2O)cc(Cl)c(OCc2ccccc2)c1Cl` [Example 332], the IC50 worked out at 31.3 µM.
As to `COc1cc(C(=O)N[C@H]2[C@H](OC)O[C@H](CO)[C@@H](O)[C@@H]2O)cc(Cl)c1OCCc1ccccc1` [Example 333], the IC50 worked out at 29.1 µM.
With `CO[C@@H]1O[C@H](CO)[C@@H](O)[C@H](O)[C@H]1NC(=O)c1cc(Cl)cc(OCc2ccccc2)c1` [Example 334] the figure was 30.6 µM; with `CO[C@@H]1O[C@H](CO)[C@@H](O)[C@H](O)[C@H]1NC(=O)c1cc(Cl)c(OCc2ccccc2)c(Cl)c1C` [Example 337], 36.4 µM; with `CO[C@@H]1O[C@H](CO)[C@@H](O)[C@H](O)[C@H]1NC(=O)c1cc(Cl)c(OCc2ccccc2)c(Cl)c1` [Example 338], 32.2 µM.
For `CO[C@H]1O[C@H](CO)[C@@H](O)[C@H](O)[C@H]1OC(=O)c1cc(Cl)c(OCc2cccc(CNCCCC(=O)OC(C)(C)C)c2)c(Cl)c1C` [Example 348], the IC50 turned out to be 31 µM.
Turning to `COc1cc(OCc2ccccc2)c(Cl)cc1C(=O)O[C@@H]1[C@@H](O)[C@@H](OC)O[C@H](CO)[C@H]1O` [Example 350], the IC50 stood at 18 µM.
With `COc1cc(OCc2cccc(CNC(=O)OC(C)(C)C)c2)c(Cl)cc1C(=O)N[C@H]1[C@@H](OC)O[C@H](CO)[C@@H](O)[C@@H]1O` [Example 357] the figure was 0.9 µM; with `COc1cc(OCc2ccccc2)ccc1C(=O)N[C@H]1[C@@H](OC)O[C@H](CO)[C@@H](O)[C@@H]1O` [Example 358], 91.4 µM.
Then `COc1cc(OCc2cccc(NC(=O)OC(C)(C)C)c2)c(Cl)cc1C(=O)N[C@H]1[C@@H](OC)O[C@H](CO)[C@@H](O)[C@@H]1O` [Example 359], with 0.4 µM; and `COc1cc(OCc2cccc(CNC(=O)CCC(=O)OC(C)(C)C)c2)c(Cl)cc1C(=O)O[C@@H]1[C@@H](O)[C@@H](OC)O[C@H](CO)[C@H]1O` [Example 363], with 27.4 µM.
As for `C#CCCCCCCCn1c(COc2c(Cl)cc(C(=O)N[C@H]3[C@@H](OC)O[C@H](CO)[C@@H](O)[C@@H]3O)c(C)c2Cl)nc2ccccc21` [Example 368], the IC50 was 1.1 µM.
With `COC(=O)[C@H](CCC(=O)NCc1cccc(COc2cc(OC)c(C(=O)O[C@H]3[C@@H](OC)O[C@H](CO)[C@@H](O)[C@@H]3O)cc2Cl)c1)NC(=O)OC(C)(C)C` [Example 369] the figure was 11.2 µM; with `COC(=O)[C@@H](N)CCCCNC(=O)CCCCCn1c(COc2c(Cl)cc(C(=O)N[C@H]3[C@@H](OC)O[C@H](CO)[C@@H](O)[C@@H]3O)c(C)c2Cl)nc2ccccc21` [Example 384], 44.2 µM.
With `COC(=O)[C@H](CCCCNC(=O)CCC(=O)NCc1cccc(COc2cc(OC)c(C(=O)O[C@H]3[C@@H](OC)O[C@H](CO)[C@@H](O)[C@@H]3O)cc2Cl)c1)NC(=O)OC(C)(C)C` [Example 385] the figure was 22.3 µM; with `COc1cc(OCc2ccc(OCC(=O)OC(C)(C)C)cc2)c(Cl)cc1C(=O)N[C@H]1[C@@H](OC)O[C@H](CO)[C@@H](O)[C@@H]1O` [Example 387], 2.6 µM; with `COC(=O)[C@H](CCCCNC(=O)CNc1cc(COc2c(Cl)cc(C(=O)N[C@H]3[C@@H](OC)O[C@H](CO)[C@@H](O)[C@@H]3O)c(C)c2Cl)cnc1OC)NC(=O)OC(C)(C)C` [Example 388], 52.9 µM.
With `COc1cc(OCc2cccc(CNC(=O)CCC(=O)NCCCCCC(=O)OC(C)(C)C)c2)c(Cl)cc1C(=O)O[C@H]1[C@@H](OC)O[C@H](CO)[C@@H](O)[C@@H]1O` [Example 390] the figure was 7.1 µM; with `COC(=O)[C@H](CCCCNC(=O)CCCC(=O)NCc1cccc(COc2cc(OC)c(C(=O)O[C@H]3[C@@H](OC)O[C@H](CO)[C@@H](O)[C@@H]3O)cc2Cl)c1)NC(=O)OC(C)(C)C` [Example 391], 34.3 µM; with `COc1cc(OCc2cccc(OCCCCCC(=O)OC(C)(C)C)c2)c(Cl)cc1C(=O)N[C@H]1[C@@H](OC)O[C@H](CO)[C@@H](O)[C@@H]1O` [Example 394], 4 µM.
For the compound `COc1cc(OCc2ccc(OCC(=O)OC(C)(C)C)cc2)c(Cl)cc1C(=O)O[C@H]1[C@@H](OC)O[C@H](CO)[C@@H](O)[C@@H]1O` [Example 395], the IC50 turned out to be 1.5 µM.
For `COC(=O)c1cccn2cc(COc3cc(OC)c(C(=O)N[C@H]4[C@@H](OC)O[C@H](CO)[C@@H](O)[C@@H]4O)cc3Cl)nc12` [Example 396], the IC50 is 17.3 µM.
